Paper PMC6222791, “(−)-Asarinin from the Roots of Asarum sieboldii Induces Apoptotic Cell Death via Caspase Activation in Human Ovarian Cancer Cells” (Molecules : A Journal of Synthetic Chemistry and Natural …, 2018)
Read-outs that look alike come from different tables or passages of the source.

What was measured:
[1] = tested on: SKOV3 cells; experiment: MTT cytotoxicity assay, SKOV3; type: cell-based; details: Homo sapiens, read-out: IC50 (cytotoxicity)
[2] = tested on: A2780 cells; experiment: MTT cytotoxicity assay, A2780; type: cell-based; details: Homo sapiens, read-out: IC50 (cytotoxicity)
[3] = tested on: caspase-3; experiment: Western blot caspase activation, A2780; type: cell-based, human; details: A2780, 48 h, procaspase level by Western blot
Protocol: (§1) The cells were treated with (−)-asarinin (1) and incubated for 48 h. The cells were rinsed twice with ice-cold PBS and lysed with protein lysis buffer (Intron Biotechnology, Seoul, Korea) containing protease inhibitors (0.5 mM PMSF and 5 μg/mL aprotinin). The lysates were mixed with 5X sodium dodecyl sulfate (SDS) sample buffer and boiled for 5 min for denaturation. Total protein was run on 10–12% SDS-PAGE gels and electrotransferred onto a polyvinylidene difluoride (PVDF) membrane. The membrane was immunoblotted using specific primary antibodies overnight at 4 °C following blocking with 5% non-fat dry milk for 30 min–1 h. After washing, the membrane was incubated with horseradish peroxidase-conjugated secondary antibody (1:1000–2000) at room temperature for 1−2 h. After washing, immunepositive bands were visualized using an ECL chemiluminescent system and analyzed by Image Quant LAS-4000 (Fujifilm Life science, Tokyo, Japan). Anti-caspase-3 and b-actin antibodies were obtained from Santa Cruz Biotechnology (Santa Cruz, CA, USA). Caspase-9 antibody was purchased from Cell Signaling (Beverly, MA, USA). Caspase-8 antibody was obtained from BD Biosciences (San Jose, CA, USA).

[4] = tested on: caspase-8; experiment: Western blot caspase activation, A2780; type: cell-based, human; details: A2780, 48 h, procaspase level by Western blot
Protocol: as §1

[5] = tested on: caspase-9; experiment: Western blot caspase activation, A2780; type: cell-based, human; details: A2780, 48 h, procaspase level by Western blot
Protocol: as §1

[6] = in vitro; details: human
Protocol: (§2) Human ovarian cancer cell lines (A2780 and SKOV3 cells) were obtained from the American Type Culture Collection (ATCC), and immortalized ovarian surface epithelial cell lines (IOSE80PC) were provided by Dr. N. Auersperg (University of British Columbia, Vancouver, British Columbia, Canada) and Dr. A. Godwin (Fox Chase Cancer Center, Philadelphia, PA, USA).
(§3) A MTT assay was performed to evaluate the cell viability. The MTT was obtained from Molecular Probes Inc. (Eugene, OR, USA). Briefly, the cells (1.0 × 10^5/well) were seeded in a 96-well plate and incubated for 24 h. […] MTT solution was added into each well (final concentration; 0.5 mg/mL) and the plates were incubated for an additional 4 h. The medium was removed and 50 μL of dimethyl sulfoxide (DMSO) was added. The optical density was measured at 540 nm using a microplate spectrophotometer (SpectraMax; Molecular Devices, Sunnyvale, CA, USA). To investigate the involvement of caspases in asarinin (1)-induced cell death, a MTT assay was also performed using caspase inhibitors. The cells were pretreated with caspase inhibitors (50 μM) for 30 min, and treated with (−)-asarinin (1) (A2780, 40 μM; and SKOV3, 60 μM) for 48 h. Caspase-3 inhibitor z-DEVD-fmk, caspase-8 inhibitor z-IETD-fmk, and caspase-9 inhibitor z-LEHD-fmk were purchased from Calbiochem (Bad Soden, Germany).

[7] = tested on: IOSE80PC cells; experiment: in vitro
Protocol: as §2, §3

[8] = tested on: A2780 cells; experiment: Cell cycle analysis (PI staining, flow cytometry), A2780; type: cell-based, human; details: A2780, 48 h
Protocol: (§4) The cells were treated with (−)-asarinin (1) and incubated for 48 h. At the time of collection, the cells were harvested and washed twice with ice-cold phosphate buffered saline (PBS). The cells were fixed and permeabilized with 70% ice-cold ethanol at −20 °C for 4 h. The cells were washed once with PBS and resuspended in a staining solution containing propidium iodide (50 µg/mL) and RNase A (5 mg/mL). The cell suspensions were incubated for 30 min at room temperature in a dark place. After 30 min the suspensions were analyzed by fluorescence-activated cell sorting (FACS) cater-plus flow cytometry (guava easy cyte^TM, Merk Millipore, Darmstadt, Germany) using 5000 cells per group.

[9] = tested on: human leukemia HL-60 cells; parameters: method as in PMID 11507740; details: cited from earlier work
[10] = tested on: EBV-EA activation; parameters: method as in PMID 9255419, doi:10.1016/S1572-5995(00)80047-2; details: Raji cells; cited from earlier work
[11] = tested on: SKOV3 cells; experiment: Cell cycle analysis (PI staining, flow cytometry), SKOV3; type: cell-based, human; details: SKOV3, 48 h
Protocol: as §4

[12] = tested on: A2780 cells; experiment: PI/Annexin V-FITC double staining, A2780; type: cell-based, human; details: A2780, 48 h, increased by up to
Protocol: (§5) Annexin V- FITC was obtained from BD Biosciences (San Jose, CA, USA). The cells were treated with (−)-asarinin (1) and incubated for 48 h. The cells were rinsed twice with ice-cold PBS and suspended with 100 μL of binding buffer (10 mM HEPES/NaOH, 140 mM Nacl, 2.5 mM CaCl2, PH 7.4). A total of 5 μL of FITC-conjugated annexin V and 5 μL of PI ([…]) were added into the cell suspension, and the mixture was incubated in a dark place at room temperature for 15 min. The cells were analyzed using FACS cater-plus flow cytometry (guava easy cyte^TM); at least 10,000 cells per each group were counted.

[13] = tested on: SKOV3 cells; experiment: PI/Annexin V-FITC double staining, SKOV3; type: cell-based, human; details: SKOV3, 48 h, increased by up to
Protocol: as §5

[14] = tested on: caspase-3; experiment: Western blot caspase activation, SKOV3; type: cell-based, human; details: SKOV3, 48 h, procaspase level by Western blot
Protocol: as §1

[15] = tested on: caspase-8; experiment: Western blot caspase activation, SKOV3; type: cell-based, human; details: SKOV3, 48 h, procaspase level by Western blot
Protocol: as §1

[16] = tested on: caspase-9; experiment: Western blot caspase activation, SKOV3; type: cell-based, human; details: SKOV3, 48 h, procaspase level by Western blot
Protocol: as §1

[17] = tested on: SKOV3 cells; experiment: MTT assay with caspase inhibitors on (−)-asarinin (1)-induced cell death, SKOV3; type: cell-based, human; details: SKOV3, inhibitor 50 μM pretreated 30 min, then (−)-asarinin (1) 60 μM 48 h
[18] = tested on: A2780 cells; experiment: MTT assay with caspase inhibitors on (−)-asarinin (1)-induced cell death, A2780; type: cell-based, human; details: A2780, inhibitor 50 μM pretreated 30 min, then (−)-asarinin (1) 40 μM 48 h
[19] = IOSE80PC immortalized ovarian surface epithelial cells

Compound | IC50 ([1]; SK-OV-3, 48 h) [µM] | IC50 ([2]; A2780, 48 h) [µM] | IC50 at 48 h [6] [µM] | IC50 ([1]; SK-OV-3, SKOV3, MTT, 48 h) [µM] | IC50 ([2]; A2780, MTT, 48 h) [µM] | IC50 at 48 h [6, 19] [µM] | effect on (−)-asarinin (1)-induced cell death [17] | effect on (−)-asarinin (1)-induced cell death [18] | other results
c1cc2c(cc1[C@H]1OC[C@H]3[C@@H]1CO[C@H]3c1ccc3c(c1)OCO3)OCO2 [Compound 1, (−)-asarinin] | 60.9 ± 5.01 | 38.5 ± 2.78 | > 200 |  |  |  |  |  | activation of caspase-3 [3]: markedly stimulated the activation; activation of caspase-8 [4]: markedly stimulated the activation; activation of caspase-9 [5]: markedly stimulated the activation; cytotoxicity (in words) [7]: did not show any cytotoxicity; cell cycle arrest [8]: failed to induce cell cycle arrest; DNA synthesis [9]: inhibited DNA synthesis; effect on EBV-EA activation [10]: significant inhibitory effect; cell cycle arrest [11]: failed to induce cell cycle arrest; percentage of Annexin V-FITC positive/PI negative cells [12]: up to 43%; percentage of Annexin V-FITC positive/PI negative cells [13]: ≤ 48%; activation of caspase-3 [14]: markedly stimulated the activation; activation of caspase-8 [15]: markedly stimulated the activation; activation of caspase-9 [16]: markedly stimulated the activation
COc1cc([C@@H]2OC[C@@H]3[C@H]2CO[C@H]3c2ccc3c(c2)OCO3)ccc1O [Compound 2, (−)-pluviatilol] |  |  |  | 174 ± 9.42 | 102 ± 13.6 | 179 ± 3.3 |  |  | 
CCC(=O)c1cc2c(cc1O)OCO2 [Compound 3, kakuol] | > 200 | > 200 | > 200 |  |  |  |  |  | 
CCC(=O)c1cc2c(cc1OC)OCO2 [Compound 4, methylkakuol] | > 200 | > 200 | > 200 |  |  |  |  |  | 
C/C=C\CC/C=C/C=C/C(=O)NCC(C)C [Compound 7, (2E,4E,8Z)-N-isobutyldeca-2,4,8-trienamide] |  |  |  | > 200 | > 200 | > 200 |  |  | 
C/C=C/C=C\CC/C=C/C=C/C(=O)NCC(C)C [Compound 8, (2E,4E,8Z,10E/Z)-N-isobutyldodeca-2,4,8,10-tetraenamide] |  |  |  | > 200 | 101 ± 10.3 | > 200 |  |  | 
z-DEVD-fmk |  |  |  |  |  |  | considerably attenuated | considerably attenuated | 
z-IETD-fmk |  |  |  |  |  |  | considerably attenuated | considerably attenuated | 
z-LEHD-fmk |  |  |  |  |  |  | considerably attenuated | considerably attenuated | 
